Values belong to the compound of their own block, whether it stands above or below them.
Assays:
[1] = biological target: T1, Full-length USP19 (Homo sapiens, UniProt O94966); experiment: USP19 fluorescence polarisation (FP) assay, Ubiquitin-Lys-TAMRA substrate; format: biochemical; conditions: for IC50: average of at least two duplicate experiments
T1 construct: Full-length USP19 was purchased from Boston Biochem (E-576); purchased Boston Biochem E-576
T1 sequence (O94966 1-1318): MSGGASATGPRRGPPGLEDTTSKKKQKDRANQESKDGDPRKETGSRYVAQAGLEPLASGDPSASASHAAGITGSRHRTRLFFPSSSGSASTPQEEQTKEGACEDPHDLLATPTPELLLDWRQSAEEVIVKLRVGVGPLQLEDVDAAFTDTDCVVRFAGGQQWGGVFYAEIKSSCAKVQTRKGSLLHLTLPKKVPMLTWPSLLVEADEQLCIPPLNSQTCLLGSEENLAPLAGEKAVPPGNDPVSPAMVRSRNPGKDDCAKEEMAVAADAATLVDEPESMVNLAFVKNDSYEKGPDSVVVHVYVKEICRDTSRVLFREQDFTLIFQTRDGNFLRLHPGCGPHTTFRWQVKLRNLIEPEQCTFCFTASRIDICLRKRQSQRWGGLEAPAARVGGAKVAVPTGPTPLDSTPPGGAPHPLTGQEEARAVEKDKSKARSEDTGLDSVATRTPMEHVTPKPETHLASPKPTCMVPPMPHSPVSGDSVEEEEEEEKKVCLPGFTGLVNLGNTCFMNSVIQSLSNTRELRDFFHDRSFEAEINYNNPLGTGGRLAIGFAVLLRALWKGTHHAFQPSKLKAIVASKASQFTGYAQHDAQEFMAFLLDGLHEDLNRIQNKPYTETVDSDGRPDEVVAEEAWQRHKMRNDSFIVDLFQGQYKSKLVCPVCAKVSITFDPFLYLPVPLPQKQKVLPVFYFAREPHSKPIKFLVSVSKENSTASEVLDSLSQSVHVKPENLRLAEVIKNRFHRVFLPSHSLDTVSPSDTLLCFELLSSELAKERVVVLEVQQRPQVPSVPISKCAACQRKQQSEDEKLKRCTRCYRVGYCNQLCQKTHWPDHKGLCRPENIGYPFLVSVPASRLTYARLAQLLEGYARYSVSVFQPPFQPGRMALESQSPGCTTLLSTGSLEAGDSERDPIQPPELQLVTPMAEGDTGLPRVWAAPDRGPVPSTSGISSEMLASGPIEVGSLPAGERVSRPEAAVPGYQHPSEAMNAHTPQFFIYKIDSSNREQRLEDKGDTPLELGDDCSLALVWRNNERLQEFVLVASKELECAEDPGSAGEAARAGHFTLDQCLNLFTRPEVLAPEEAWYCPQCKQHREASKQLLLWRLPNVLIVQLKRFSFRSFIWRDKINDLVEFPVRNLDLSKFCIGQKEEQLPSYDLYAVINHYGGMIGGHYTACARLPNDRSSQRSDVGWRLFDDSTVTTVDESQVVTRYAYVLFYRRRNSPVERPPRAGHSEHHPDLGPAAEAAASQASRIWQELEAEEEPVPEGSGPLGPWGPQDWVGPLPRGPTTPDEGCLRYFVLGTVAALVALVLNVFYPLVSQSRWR
Method in brief: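 Fluorescence polarisation (excitation 530 nm, parallel and perpendicular emission at 575 nm) was recorded every 15 min for 90 min after adding the ubiquitin-Lys-TAMRA isopeptide (500 nM as dispensed). Beforehand, the full-length enzyme (2.5 nM as dispensed) sat 30 min at RT with compound diluted from 200 μM to 2 μM in HEPES pH 7.4 buffer with 150 mM NaCl, 5 mM DTT, 0.05% BSA and 0.05% CHAPS. Values normalised to uninhibited wells gave IC50s by non-linear fitting, each the mean of two or more duplicate runs.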

[2] = system: USP19; experiment: Cellular target engagement using western blotting (Ub-PA / Ub-VME probe); format: cell-based; conditions: breast cancer, neuroblastoma and mouse skeletal muscle cell lines
Method: Cells from a breast cancer cell line, a neuroblastoma cell line and a mouse skeletal muscle cell line were treated with a USP19 inhibitor compound (ADC-141) for 2 hrs, lysed (lysis buffer: 50 mM Tris pH 7.4; 150 mM NaCl; 5 mM MgCl2; 0.5 mM EDTA; 0.5% NP40; 10% Glycerol; 2 mM DTT) and Ubiquitin-propargylamine (Ub-PA; UbiQ) or Ubiquitin-vinyl methyl ester (Ub-VME; Almac Sciences Scotland Limited) was then added. Samples were analysed by western blotting probing for USP19 (EC50 determined by densitometry).

[3] = system: male C57bl/6 mice; experiment: Sciatic nerve denervation muscle wasting model; format: in vivo, mouse; conditions: 75 mg/kg IP twice daily
Method: To induce muscle wasting, a 1 cm segment of the sciatic nerve in the thigh was removed from mice (male C57bl/6 mice at 8-10 weeks of age; n=10 per group) under isoflurane anaesthesia and analgesia with carprofen. A sham operation was carried out in the opposite leg as a control.
Mice were randomised into Vehicle or Test groups, with all animals weighed to ensure a similar mean weight in each group. ADC-141, a USP19 inhibitory compound at 75 mg/kg or Vehicle was administered IP twice daily starting from the evening post-operation.
Mice were sacrificed 14 days later. Fat pads, liver, gastrocnemius and tibialis anterior muscles were harvested. Tissue mass were measured in both groups.

[4] = system: diet-induced obese (DIO) mouse; experiment: Diet-induced obesity (DIO) mouse model with OGTT; format: in vivo, Male C57BL6/J mice; conditions: 5 or 25 mg/kg i.p. BID
Method: To assess obesity and insulin resistance, a diet-induced obesity mouse model was used.
Male C57BL6/J mice were continuously provided with high-fat diet (D12451, 45% kcal as fat; Research Diets, New Jersey, USA) and filtered tap water ad libitum for the duration of the study. From day 0, mice were administered vehicle i.p. BID, USP19 inhibitor (ADC-141) i.p. BID at 5 mg/kg or 25 mg/kg, or positive control liraglutide 0.1 mg/kg s.c. BID.
Body weight was measured daily. On Day 13, body composition was be assessed by DEXA. On Day 15, fasting glucose and insulin levels were measured before and during an oral glucose tolerance test (OGTT) to assess improvements in glucose control. The OGTT was performed following an overnight fast. […] An OGTT was performed the following morning (approx. 16 h post fast). Mice were dosed with vehicle or test compound (starting at 08.45) to a timed schedule 30 minutes prior to the administration of the glucose challenge (2.0 g/kg po). Blood samples were taken immediately prior to dosing (B1), immediately prior to glucose administration (B2) and 15, 30, 60 and 120 minutes after glucose administration.

[5] = biological target: T2, USP19 (Homo sapiens, UniProt O94966); experiment: Cellular target engagement using HTRF assay (USP19-Flag transfected cells); format: cell-based; conditions: HEK293T cells; read-out: HTRF TE IC50
T2 construct: expressed in transfected cells; host or cells: HEK293T
T2 sequence (O94966 1-1318): T1 sequence (O94966 1-1318)
Method: USP19 cellular target engagement was determined in a homogenous time resolved fluorescence (HTRF) assay using HA-tagged ubiquitin vinyl pentynyl sulfone (VPS) probe (UbiQ-193, UbiQ Bio) and a USP19-Flag overexpression construct. Inhibitors were stored as 10 mM DMSO stocks in an inert environment (low humidity, dark, low oxygen, rt) using the StoragePod® system (Roylan Developments). USP19-Flag transfected cells were incubated with serially diluted compound in an 11 point dose response curve (from 50 μM to 0.01 nM) for 2 h and then washed in PBS and lysed. Unless otherwise stated, all HTRF reagents were purchased from CisBio. HTRF assays using cell lysates were completed in 384 well plates (Greiner) in a 20 μL total volume. Cell lysates were incubated with HA-tagged ubiquitin VPS probe for 40 min in PPI detection buffer prior to addition of anti-HA and anti-FLAG HTRF detection reagents. HTRF was measured every 1 h for 18 h using a Pherastar FSX plate reader (excitation of 337 nm, emission of 620/665 nm). Data was normalised to DMSO (no compound controls) and fitted using IC50 values derived using Prism (GraphPad) using nonlinear regression curve fitting.

[6] = Caco-2 permeability assay; format: in vitro ADME; conditions: human, apical to basolateral (A:B), read-out: caco-2 Papp AB
Method: Caco-2 cells are commonly used as an in vitro model for the prediction of human intestinal absorption of test compounds. When cultured, Caco-2 cells (derived from a human colorectal carcinoma) spontaneously differentiate into monolayers of polarised enterocytes. The cells are seeded on multiwell-insert plates and form a confluent monolayer over 20 d before the assay. On day 20, compound was added to the apical side of the membrane and the flux of the compound across the monolayer was monitored over 2 h. All data was generated at Cyptotex.

SMILES: C[C@H](CC1CCCCC1)C(=O)N1CC[C@@](O)(Cn2cc(C(=O)N3CCNCC3)c(-c3ccccc3)cc2=O)C2(CCCC2)C1 [ADC-141, 1-(((S)-7-((R)-3-cyclohexyl-2-methylpropanoyl)-10-hydroxy-7-azaspiro[4.5]decan-10-yl)methyl)-4-phenyl-5-(piperazine-1-carbonyl)pyridin-2(1H)-one]
USP19 inhibitory activity ([1]; fluorescence polarisation assay, qualitative): shown to have USP19 inhibitory activity
cell permeability [2]: good cell permeability
EC50 determined by densitometry ([2]; 2 hrs treatment): low nanomolar
liver mass ([3]; 2 weeks, vs vehicle): increase in liver mass
mass of the epididymal fat pad ([3]; 2 weeks, vs vehicle): significantly smaller fat pads
muscle wasting in the gastrocnemius muscle ([3]; 14 days, trend did not reach significance): reduced
loss of muscle mass in the tibialis anterior muscle ([3]; 14 days, vs vehicle): significantly lower loss of muscle mass
fat mass ([4]; DEXA Day 13): reduction in fat mass
lean body mass ([4]; DEXA Day 13): preserved
plasma glucose in OGTT ([4]; Day 15): decreased plasma glucose
plasma insulin in OGTT ([4]; Day 15): decreased plasma insulin
OGTT response ([4]; Day 15, glucose 2.0 g/kg po): dose-dependent improvement in OGTT response
overall body weight gain ([4]; high-fat diet): reduction in overall body weight gain
cumulative food intake ([4]; vs vehicle control): reduction in cumulative food intake

IC50 [5]: 1000 nM
Papp A→B at 2 h [6]: 1 ×10⁻⁶ cm/s
SMILES: O=C(N1CC[C@@H](Cn2cnc(-c3ccccc3)cc2=O)C2(CCCC2)C1)N1CCNC[C@H]1c1ccccc1

IC50 [1]: 10 to 100 nM
SMILES: CC(=O)N[C@@H]1CCN(C(=O)N2CC[C@@H](Cn3ccc(-c4ccccc4)cc3=O)C3(CCCC3)C2)[C@H](c2ccccc2)C1 [Example 93, N-((2S,4R)-1-((R)-10-((2-Oxo-4-phenylpyridin-1(2H)-yl)methyl)-7-azaspiro[4.5]decane-7-carbonyl)-2-phenylpiperidin-4-yl)acetamide]

IC50 [1]: < 10 nM
SMILES: CN[C@@H]1CCN(C(=O)N2CC[C@@H](Cn3cnc(-c4ccccc4OC)cc3=O)C3(CCCC3)C2)[C@H](c2cccc(F)c2F)C1 [Example 149, 3-(((R)-7-((2S,4R)-2-(2,3-Difluorophenyl)-4-(methylamino)piperidine-1-carbonyl)-7-azaspiro[4.5]decan-10-yl)methyl)-6-(2-methoxyphenyl)pyrimidin-4(3H)-one]

IC50 [1]: < 10 nM
SMILES: CCN[C@@H]1CCN(C(=O)N2CC[C@@H](Cn3cnc(-c4ccccc4)cc3=O)C3(CCCC3)C2)[C@H](c2ccccc2)C1 [Example 62, 3-(((R)-7-((2S,4R)-4-(Ethylamino)-2-phenylpiperidine-1-carbonyl)-7-azaspiro[4.5]decan-10-yl)methyl)-6-phenylpyrimidin-4(3H)-one]

IC50 [1]: < 10 nM
SMILES: CN[C@@H]1CCN(C(=O)N2CC[C@@H](Cn3cnc(-c4ccccc4C)cc3=O)C3(CCCC3)C2)[C@H](c2ccc(F)cc2F)C1 [Example 137, 3-(((R)-7-((2S,4R)-2-(2,4-Difluorophenyl)-4-(methylamino)piperidine-1-carbonyl)-7-azaspiro[4.5]decan-10-yl)methyl)-6-(o-tolyl)pyrimidin-4(3H)-one]

IC50 [1]: < 10 nM
SMILES: CN[C@@H]1CCN(C(=O)N2CC[C@@H](CN3CCOCC3=O)C3(CCCC3)C2)[C@H](c2cc(F)ccc2F)C1 [Example 159, 4-(((R)-7-((2S,4R)-2-(2,5-Difluorophenyl)-4-(methylamino)piperidine-1-carbonyl)-7-azaspiro[4.5]decan-10-yl)methyl)morpholin-3-one]

IC50 [1]: < 10 nM
SMILES: CC1(N[C@@H]2CCN(C(=O)N3CC[C@@H](Cn4ccc(-c5ccccc5)cc4=O)C4(CCCC4)C3)[C@H](c3ccccc3)C2)COC1 [Example 111, 1-(((R)-7-((2S,4R)-4-((3-Methyloxetan-3-yl)amino)-2-phenylpiperidine-1-carbonyl)-7-azaspiro[4.5]decan-10-yl)methyl)-4-phenylpyridin-2(1H)-one]

IC50 [1]: < 10 nM
SMILES: CC(=O)N[C@@H]1CCN(C(=O)N2CC[C@@H](Cn3cnc(-c4ccccc4)cc3=O)C3(CCCC3)C2)[C@H](c2cc(F)ccc2F)C1 [Example 155, N-((2S,4R)-2-(2,5-Difluorophenyl)-1-((R)-10-((6-oxo-4-phenylpyrimidin-1(6H)-yl)methyl)-7-azaspiro[4.5]decane-7-carbonyl)piperidin-4-yl)acetamide]
